What all share (assay): growth of human tumour cells (NCI), 48 h
For experiment [1], the system named is OVCAR-4 ovarian.
Experiment [2] deals with SF-268 CNS.
In experiment [3] the test system is SR leukemia.
For experiment [4], the system named is U251 CNS.
In experiment [5] the test system is COLO 205 colon.
Experiment [6] deals with MOLT-4 leukemia.
Experiment [7] relates to UACC-62 melanoma.
Experiment [8] relates to A549 NSCLC.
Experiment [9] deals with SN12C renal.
Experiment [10] relates to UO-31 renal.

Here are results for four molecules from PubChem BioAssay (NCI).

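Method: 48-hour compound exposure of cells in 96-well plates, five concentrations, linear interpolation of endpoints. TGI: concentration producing complete growth inhibition.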

`Cc1ccc2c(c1)C(=O)N1CCC[C@H]1C=N2`: the TGI was 53.8 µM in [1]; more than 100 µM in experiment [2]; more than 92.1 µM in [3]; more than 85.2 µM in [4]; 37.8 µM in experiment [5]; more than 84.1 µM in [6]. For the same molecule, the TGI in experiment [7] was 34.7 µM; in [8], more than 100 µM; in experiment [9] it was more than 100 µM; in experiment [10] it was more than 67 µM.

For the molecule `CC(C)OP(=O)(OC(C)C)/C(C#N)=C/c1ccco1`, the TGI in experiment [1], in [2], in [3], in experiment [4], in [5] and in experiment [6] was more than 100 µM each time. Besides, the TGI was more than 100 µM in [7], more than 100 µM in experiment [8], more than 100 µM in experiment [9] and 9.38 µM in [10].

As for `Cc1cc(-c2nc3ccccc3s2)ccc1N`, the TGI in experiment [1] was more than 84.1 µM; in experiment [2] it was more than 83.8 µM; in experiment [3], more than 89.8 µM; in [4], more than 88.5 µM; in experiment [5] it was more than 76.9 µM; in [6], 82.2 µM. Further, the TGI was more than 74.3 µM in experiment [7], more than 100 µM in [8], more than 77.9 µM in [9] and 88.3 µM in [10].

As to `O=C1N2CCc3c([nH]c4ccccc34)C23CC2CCCCC12S3` (stereo not given), the TGI in experiment [1], in experiment [2], in [3], in experiment [4], in experiment [5] and in experiment [6] was more than 100 µM throughout. Further, the TGI in [7], in [8], in [9] and in [10] was more than 100 µM each time.
